Experimental data taken from patent US20240315994A1, “SMALL MOLECULE MODULATORS OF FERROPTOSIS” (ARPEGGIO BIOSCIENCES, INC., priority 2021, published 2024).

What was measured:
[1] = test system: HK-2 kidney epithelial cells; assay: HK-2 kidney epithelial cell viability dose response (Cell Titer Glo); format: cell-based; conditions: healthy HK-2 vs cancer HT-1080 cells
Procedure: To test whether the ferroptosis-inducing compounds 8216 or 1962 display selectivity for cancer cells we performed a dose response study in HK-2 kidney epithelial cells. HK-2 kidney epithelial cells are a non-cancerous cell line that is commonly used as a “healthy” control in ferroptosis experiments. Briefly, HK-2 kidney epithelial cells were plated 24 hours prior to treatment with concentrations of the ferroptosis-inducing compounds 8216 or 1962 ranging from 10 µM to 10 nM. The ferroptosis-inducing compound RSL3 was used as a positive control. As an additional control, we included a non-specific inducer of apoptosis, staurosporine. Cell Titer Glo® was used to read out cell viability after 48 hours of compound exposure. Data was collected in triplicate.
To determine whether the reduction in viability of HK-2 renal epithelial cells exposed to compounds 8216 or 1962 is driven by induction of ferroptosis, we performed dose response curves for each compound in the presence or absence of ferrostatin-1. We also compared the EC50s for each compound between healthy cells (HK-2 renal epithelial cells) and cancer cells (HT-1080 fibrosarcoma cells) to determine a therapeutic window for healthy vs diseased cells. […] Cell Titer Glo® was used to read out cell viability after 48 hours of compound exposure. […]

recombinant GPX4 protein [2] = biological target: T1, recombinant GPX4 protein (Homo sapiens, UniProt P36969); assay: Intact protein mass spectrometry binding to recombinant GPX4; conditions: for binding to recombinant GPX4 in vitro / number of binding events / sites on GPX4 (mass shifts): intact protein mass spectrometry, 2 hours incubation
T1 construct: purchased Cayman Chemical SO960203
T1 sequence (P36969 1-197): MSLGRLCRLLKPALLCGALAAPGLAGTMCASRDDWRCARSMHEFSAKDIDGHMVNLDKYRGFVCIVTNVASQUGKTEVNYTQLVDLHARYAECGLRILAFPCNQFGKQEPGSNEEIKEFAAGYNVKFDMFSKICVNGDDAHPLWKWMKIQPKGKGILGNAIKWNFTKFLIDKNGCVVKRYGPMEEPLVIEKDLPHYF
Excerpt: To determine whether the five ferroptosis-inducing compounds identified in FIG. 3 and FIG. 4 could function through direct binding and inhibition of GPX4, we tested binding of each compound to recombinant GPX4 protein in vitro by intact protein mass spectrometry. Intact mass analysis is the assessment of a protein's total molecular weight by mass spectrometry without prior digestion or fragmentation of the molecule of interest. Covalent binding of a potential inhibitor to GPX4 can be detected by a shift in the mass of the intact protein. For the intact protein analysis, we used ML162, a well-characterized GPX4 inhibitor (available from Sigma Aldrich), as a positive control. […] Briefly, compounds were incubated with recombinant GPX4 protein in vitro for 2 hours before quenching with trifluoroacetic acid (TFA) and analysis by mass spectroscopy.
To determine whether the ferroptosis-inducing compounds 6666 and 8147 could function through direct binding and inhibition of GPX4, we tested binding of each compound to recombinant GPX4 protein in vitro by intact protein mass spectrometry. Compound 8216 was used as a positive control (see FIG. 6). Briefly, 15 μL of GPX4 protein (Cayman Chemical cat #SO960203]) was incubated with 100 µM of each compound ([…]) and diluted with 25.5 μl of PBS. The incubation was performed at room temperature for 2 hours and then the reaction was quenched with 3 μL of trifluoroacetic acid. Samples were subjected to UPLC coupled to Synapt G2 mass spectrometer to evaluate if binding of the test compound to GPX4 occurs. Binding is evident by a mass shift equivalent to the mass size of the compound minus a chlorine atom plus the mass size of the GPX4 protein, as described by the manufacturer.

[3] = test system: HT-1080 fibrosarcoma cells; assay: Bodipy C-11 lipid peroxidation imaging in HT-1080 cells; format: cell-based; conditions: 10 μM, 1 hour, with or without 1.5 μM ferrostatin-1, ferrostatin-1 rescued
Procedure: Compounds 6666, 6047, […], 8216, and 8147 were also evaluated for inducing lipid peroxidation in HT-1080 fibrosarcoma cells in the presence or absence of 1.5 µM ferrostatin-1. Briefly, HT-1080 fibrosarcoma cells were treated with 10 µM of compound with or without 1.5 μM ferrostatin-1 and incubated at 37° C. for 1 hour. Bodipy C-11 and Hoescht stain were then added to the media, the cells were allowed to incubate for an additional 30 minutes and then were imaged on the Opera Phenix confocal screening system.

recombinant GPX4 protein [4] = biological target: T1, recombinant GPX4 protein; assay: GPX4 inhibitor screening assay (Cayman Chemical cat #701880); format: biochemical; conditions: for GPX4 inhibitory capacity in vitro: 25 μM, one hour incubation with recombinant GPX4; for EC50: stated with the FIG. 6/FIG. 7 binding and GPX4 enzymatic results, assay behind the EC50 not named, read-out: EC50 (half maximal effective concentration)
Procedure: To determine whether the five ferroptosis-inducing compounds (1816, 8216, 3362, 1962, and 0973) inhibit GPX4 enzymatic activity in vitro, we used a commercially available GPX4 inhibitor screening kit (Cayman Chemical cat #701880). This assay measures a compound's ability to prevent cumene hydroperoxide reduction by recombinant GPX4 protein. Briefly, the five ferroptosis-inducing compounds (25 μM) were incubated with recombinant GPX4 protein for one hour before being run in the Cayman Chemicals GPX4 inhibitor screening assay according to manufacturer's recommendations. The assay read out is a change in absorbance between NADPH and NADP. ML162 (25 μM) and RSL3 (25 μM) were used as positive control compounds.
An enzymatic assay that measures the reduction of […] by GPX4 was used to test the ability of compounds 8216, 6666, 8147, and 3793 to inhibit the activity of GPX4. The enzymatic assay was performed using a commercially available kit (Cayman cat #701880). The compounds were tested at 8 concentrations in duplicate with the compound being diluted following manufacturer's instructions. The enzymatic reaction was allowed to continue for 1 hour prior to reading out the kinetic shift in absorbance that occurs as result of GPX4 […].

Compound | therapeutic window (HK-2 vs HT-1080 EC50 difference) [1] | mass shift of GPX4 (binding) (recombinant GPX4 protein [2]; 100 μM compound, room temperature, 2 hours, UPLC-Synapt G2) | binding to recombinant GPX4 in vitro (recombinant GPX4 protein [2]) | number of binding events / sites on GPX4 (mass shifts) (recombinant GPX4 protein [2]) | lipid peroxidation (Bodipy C-11 emission shift) [3] | GPX4 inhibitory capacity in vitro (recombinant GPX4 protein [4]) | EC50 (recombinant GPX4 protein [4])
O=C(CCl)N(Cc1ccc(F)cc1)C1CCCCC1 [Compound 8216] | comparable to that of RSL3 | demonstrate a mass shift | capable of binding GPX4 | bind either 1, 2, or 3 times | shift in emission reflective of lipid peroxidation | exhibit potent GPX4 inhibitory capacity | ~100 nM
CCCCCN(C(=O)CCl)c1c(N)n(CCCC)c(=O)[nH]c1=O [Compound 1816] |  |  | capable of binding GPX4 | display a single mass shift |  | do not inhibit GPX4 enzymatic activity in vitro | 
O=C(CCl)N1c2ccccc2OC[C@@H]1c1ccccc1 [Compound 1962] |  |  | capable of binding GPX4 | can bind GPX4 either 2, 3, or 4 times |  | exhibit potent GPX4 inhibitory capacity | ~440 nM
CCOc1ccc(C[C@@H]2c3cc(OCC)c(OCC)cc3CCN2C(=O)CCl)cc1OCC [Compound 3362] |  |  |  | bind either 1, 2, or 3 times |  | do not inhibit GPX4 enzymatic activity in vitro | 
